The results in this text go back to patent publication US20090209605A1, “NEMATICIDAL COMPOSITIONS” (Devgen N.V., priority 2004, published 2009).

Common to all, as to assay type: in vivo
In data set [1] the test system is stubby root nematodes (Paratrichodorus), stunt nematodes (Tylenchorhynchus spp.), root lesion nematodes (Pratylenchus spp.) and root knot nematodes …. The data set can be described thus: Nematicide field trial on carrots: % deformed carrots. As to the method: Garden carrots were grown in the open field. The soil contained high levels of stubby root nematodes (Paratrichodorus), stunt nematodes (Tylenchorhynchus spp.), root lesion nematodes (Pratylenchus spp.) and root knot nematodes (Meloidogyne spp.).
(§1) An experimental pattern at Complete Randomized Blocks with four replicas was adopted. Besides the experimental products, each test also included an untreated control and a treatment with the standard commercial product VYDATE 10L (10%) applied in accordance to label instructions.
In carrots, nematodes cause deformation such as stunting, dwarfing, twisting, splitting and bearding. For these experiments, the total percentage of deformed carrots were considered, as these are not marketed for human consumption and are of no commercial interest.
Three different tests have been performed (Tables 9, 10 and 11), each containing an untreated and commercial reference control. All treatments were statistically different from untreated control.

For data set [2], the system named is root-knot nematode (Meloidogyne spp). The data set can be described thus: Nematicide field trial on cucumber: root galling and yield. The conditions noted are these: for Average root galling: 0-5 Lamberti scale. As to the method: Open ground grown cucumber (Cucumis sativus cv Carine) were grown on sandy soil with a natural root-knot nematode (Meloidogyne spp) population. Soil samples, collected prior to planting, contained on average 8 J2 juveniles per 100 g soil. A program of 4 applications with intervals of about 14 days was started six days after transplantation.
as §1
[…] The level of nematode attack of the root system at the time of harvesting was assessed by means of the lamberti scoring.

The subject of data set [3] is Meloidogyne incognita nematodes. The data set can be described thus: Pot Assay 1: Meloidogyne infection of potato, egg masses/galls on roots. To be noted: potato in pot, week 8 after inoculation. The method, then: 500 ml clay pots were filled with 400 ml of silver sand. One tuber of potato ( Solanum tuberosum cv. Bintje) was planted in the sand. After 2 to 3 weeks incubation, the potato plant was sufficiently developed to be inoculated.
Plants were grown under the usual standard greenhouse conditions at 14° C.-18° C., with 16 hours light and 8 hours dark and 80-90% relative humidity. The pots were watered using individual drippers and fertilizers were added under the form of macro- and micro nutrients according to plant growth requirements. When needed, the plants were sprayed with fungicides and insecticides.
The compounds as described herein were added one day before inoculation. The compounds were dissolved in a 20 ml DMSO-solution and spread over the sand surface. The final concentration is calculated under the assumption that the compound is diffused entirely in the pot. This process occurred during two days at the normal greenhouse conditions described above.
After compound incubation, approximately 1500 juveniles of Meloidogyne incognita nematodes were added to the pots.
The pots were incubated at the described greenhouse conditions until nematode development was completed. At week 8 after inoculation the number of galls formed on the roots was counted after washing off the sandy substrate. Also the effect of the compound on the plant development was recorded.
Every compound was tested in three replicates. Positive control plants were treated with different concentrations of aldicarb, a known nematicide. Negative controls involved 12 replicates of double negative controls (no compound, no nematode), 12 replicates of single negative controls (no compound, no DMSO, with nematode), 24 replicates of DMSO controls (DMSO solution, with nematode).
As assessment of the root development was taken into account.

In another data set the test system is Meloidogyne incognita. The data set can be described thus: Root infestation on agar plate: root knot count on potato microplant roots. To be noted: 60 μM in agar, galls counted 5 weeks after inoculation, four replicates. The method, then:
9 cm petri dishes were filled with a 15 ml agar. One stem cutting of a potato microplant (Solanum tuberosum cv. Desirée) was placed on top of the agar layer. After 2 to 3 weeks of incubation at 20° C., the root system was sufficiently developed to be inoculated.
The test compounds (see Table 1) were added 2 days before inoculation by way of spreading a 2 ml DMSO-solution with the compound over the agar and allowing the compound to diffuse in the agar during two days at constant temperature of 20° C. During incubation, the plates are protected from light in a dark incubator. The resulting concentration of each compound in each agar plate was 60 μM.
After incubation, approximately 400 axenic juveniles of Meloidogyne incognita species were added to the plate.
The plates were incubated in the dark at a constant temperature of 20° C. and 5 weeks after inoculation the number of galls formed on the roots were determined by counting. Also any toxic effect of the test compounds on the roots was recorded. 8 weeks after inoculation the plates were stored at low temperature.
Each compound was tested in four replicates. Positive controls were treated with different concentrations of Aldicarb, a known nematicide. Negative controls included 5 replicates of double negative controls (no compound, no nematode), 5 replicates of single negative controls (no compound, with nematode) and 5 replicates of DMSO controls (DMSO solution, with nematode).

The test system of the next data set is Heterodera nematode. The data set can be described thus: Pot Assay 3: Heterodera infection of sugar beet, crop vigor and crop height. The conditions noted are these: infested soil. From the text: The soil used in this assay originated from a Heterodera nematode infested sugar plot of which the infestation was confirmed by means of several soil analyses. Each pot was filled up with a soil mixture composed as follows: a) the infested soil was constituted by silt loam soil (about 600 g/pot) mixed with sterile peat (about 600 g/pot) and sterile cork (about 200 g/pot); b) the sterile soil was instead constituted only by sterile peat (1200 g/pot) and sterile cork (200 g/pot).
(§2) Each compound or compound mixture as described herein was tested in 4 different rates with 4 replicates per rate. One pot per replicate was used in which 18 beava sugar beet seeds (variety GEA (KWS)) were sown. After crop germination, the number of plants was reduced to 10 plants. The 4 rates added to the soil of the tested compounds or compound mixtures were 0.05 mg, 0.20 mg, 1 mg and 5 mg. These amounts translate to field application rates respectively as 30, 120, 600 and 3000 g per hectare.
Efficacy of the compounds described herein as nematicide was measured by visual inspection of the crop vigor and the crop height. The crop vigor evaluation is based on a 0-100 scale, where 0 is “no vigor” and 100 is “maximum vigor”. The crop height development is based on a measurement, in cm, per plant, excluding the root system.
Positive control plants were treated with Oxamyl (Vydate 5 G, 5% gr) at a rate of 40 kg fp per ha. Negative controls involved single negative controls (no compound, with nematode infested soil; referenced as “Untreated 1”) and double negative controls (no compound, sterile soil; referenced as “Untreated 2”).

Data set [4] concerns sugar beet (variety GEA (KWS)). The data set can be described thus: Pot Assay 3: phytotoxicity, number of sugar beet plants emerged. The method, then: as §2
Phytotoxicity assessments were carried by assessing any possible effects of the chemicals on the crop, such as chlorosis, yellowing, stunting, in comparison to the untreated control without nematodes.

The subject of data set [5] is root-knot nematode (Meloidogyne spp). The data set can be described thus: Nematicide field trial on tomato: root galling and yield. To be noted: for Average root galling: 0-5 Lamberti scale. The method, then:
Open field tomatoes (Lycopersicon esculentum, variety incas) were grown on sandy soil with a natural root-knot nematode (Meloidogyne spp) population. Soil samples, collected prior to planting, contained on average 113 J2 juveniles per 100 g soil. A program of 5 applications with intervals of about 14 days was started two days after transplantation.
as §1
The read-outs are the average yield of the marketable tomatoes per plant (Table 7). The level of nematode attack of the root system at the time of harvesting was assessed by means of the lamberti scoring.

Where [6] appears, read: Product Rate 4 (footnote g ai/ha).
[7] abbreviates: Product Rate 8 (footnote g ai/ha).

As to `Cc1cc(C2CC2)nc(Nc2ccccc2)n1` [XLIV], the “% total deformed” value in data set [1] (test of Table 9, Product Rate 500 g ai/ha) came out at 37.41%; in data set [1] (test of Table 9, Product Rate 1500 g ai/ha), 44.85%; in data set [1] (test of Table 9, Product Rate 3000 g ai/ha) it was 37.10%. The “Average yield of marketable fruits” value in data set [2] (Product Rate 500 g ai/ha) is recorded as 7.3 kg/plant/pot; in data set [2] (Product Rate 1500 g ai/ha), 8.3 kg/plant/pot. The Average root galling in data set [2] (Product Rate 500 g ai/ha) and in data set [2] (Product Rate 1500 g ai/ha) was 2.5 throughout. For the same compound, the “number of egg masses (galls) on roots, Replicate 3” value was 5 in data set [3] (0.5 μM), 15 in data set [3] (2 μM) and 5 in data set [3] (50 μM). Further, the “number of egg masses (galls) on roots, Replicate 1” value in data set [3] (2 μM) is 20; in data set [3] (10 μM) it was 20; in data set [3] (50 μM) it was 15. For the same compound, the “number of egg masses (galls) on roots, Replicate 2” value in data set [3] (50 μM) is 25. In addition, the “Root knot count, average of the replicate counts” value in the data set with Meloidogyne incognita is given as 9.5.
Consider `CC(C)[C@@H](Nc1ccc(C(F)(F)F)cc1Cl)C(=O)OC(C#N)c1cccc(Oc2ccccc2)c1` (stereo partly drawn) [XXXVI], for which the “Average yield of marketable fruits” value was 9.3 kg/plant/pot in data set [2] (Product Rate 250 g ai/ha), 9.6 kg/plant/pot in data set [2] (Product Rate 500 g ai/ha), 1.43 kg/plant/pot in data set [5] (setting [6]) and 1.26 kg/plant/pot in data set [5] (setting [7]). The Average root galling is on record as 1.88 in data set [2] (Product Rate 250 g ai/ha), 1.63 in data set [2] (Product Rate 500 g ai/ha), 1.8 in data set [5] (setting [6]) and 1.8 in data set [5] (setting [7]). Moreover, the “crop height (cm)” value with Heterodera nematode (Rate 0.05 mg) was 9 cm; with Heterodera nematode (Rate 0.2 mg) it was 14 cm; in the data set on Heterodera nematode (Rate 1 mg), 15 cm; with Heterodera nematode (Rate 5 mg), 13 cm. Further, the “crop vigor (max 100%)” value in the data set on Heterodera nematode (Rate 0.05 mg) stood at 70%; in the data set with Heterodera nematode (Rate 0.2 mg), 100%; in the data set with Heterodera nematode (Rate 1 mg), 100%; in the data set with Heterodera nematode (Rate 5 mg) it was 90%. Moreover, the “# crops emerged (max 18)” value in data set [4] (Rate 0.05 mg), in data set [4] (Rate 0.2 mg), in data set [4] (Rate 1 mg) and in data set [4] (Rate 5 mg) was 18 throughout. Further, in the data set on Meloidogyne incognita, the “Root knot count, average of the replicate counts” value is recorded as 0.
